# Patent US9200252B2, “Compositions for inducing differentiation into retinal cells from retinal progenitor cells or inducing proliferation of retinal cells comprising Wnt signaling pathway activators” (SNU R&DB Foundation, priority 2009, dated 2015)
# Test system: hESC-derived retinal progenitor cells
# Assay: Differentiation of hESC-derived retinal progenitor cells into photoreceptor cells with substitutes for Wnt3a or Shh; positive rates of retinal cell markers by immunochemical staining
# Type: cell-based, human
# Details: Mean ± S.E.M., sample size 3
# Method: The eye field precursors (floating aggregates) were cultured in 8-well poly-D-lysine/laminin-coated slides (BD Biosciences, Bedford, Mass.) under the same conditions that were used for differentiation into the retinal progenitor cells, the neural retinal progenitor cells, the photoreceptor cell precursors and the photoreceptor cells.
# After being blocked for 90 min, the slides in each differentiation step were incubated overnight at 4° C. with the following antibodies specific for cells of each differentiation step: rabbit-Blue-opsin (1:500, Chemicon), sheep-Chx10 (1:100, Chemicon), rabbit-Crx (1:200, Santa Cruz Biotechnology, Santa Cruz, Calif., USA), rabbit-GFAP (1:200, Invitrogen), mouse-human specific mitochondria (1:50, Chemicon), rabbit-human specific mitochondria (1:200, Chemicon), mouse-Islet1 (1:10, Developmental Studies Hydroma Bank, DSHB; Iowa City, Iowa, USA), mouse-Ki67 (1:100, Vector Laboratories, Peterborough, England), mouse-Mitf (1:1,000, abcam, Cambridge, Mass., USA), mouse-nestin (1:250, BD Sciences), rabbit-neurofilament-200 (1:1,000, Sigma-Aldrich), rabbit-Otx2 (1:100, abcam), rabbit-Pax2 (1:250, abcam), mouse-Pax6 (1:2, DSHB), mouse-peripherin2 (1:500, GenScript, Piscataway, N.J., USA), rabbit-Rax (1:250, abcam), rabbit-recoverin (1:1,000, Chemicon), retinal pigment epithelium 65 (RPE65, 1:100, Chemicon), rabbit-rhodopsin (1:500, Sigma-Aldrich), mouse-rhodopsin (1:500, Ret-P1, Lab Vision, Fremont, Calif., USA), mouse-rhodopsin (1:2,000, Ret-P1, Sigma-Aldrich), mouse-rom1 (1:50, ABR-Affinity Bioreagents, Golden, Colo., USA), rabbit-PDE6 beta (1:100, abcam), rabbit-phosducin (1:500, Santa Cruz Biotechnology), mouse-PKC-alpha (1:500, Sigma-Aldrich), mouse-Prox1 (1:2,000, Chemicon), mouse-Sox2 (1:250, R&D Systems), rabbit-synaptophysin (1:2,000, Santa Cruz Biotechnology), and rabbit-ZO-1 (1:100, Zymed-Invitrogen).
# The cells cultured on the slides in each step were washed three times for 5 min with PBS and incubated at room temperature for 2 hrs with species-specific secondary antibody conjugated with Cy3 (1:800, Jackson Immunoresearch Laboratory) or Alexa488 (1:500, Invitrogen). A standard material suitable for the primary and the secondary antibody was used to examine non-specific staining or interaction between the antibodies. Afterwards, the cells were washed three times for 5 min with PBS, counterstained with DAPI (4,6-diamidino-2 phenylindole) and mounted in Vectashield (Vector Laboratories), followed by visualization under an epifluorescence microscope (Nikon Eclipse, E800, Tokyo, Japan) and a confocal microscope (Leica, Leica Microsystems Inc, Bannockburn, Ill., USA or Zeiss LSM510, Carl Zeiss, Inc, Thornwood, N.Y., USA).
# 500 cells were counted from 20 microscopic fields randomly selected at 200 magnification and evaluated for positive responses to each antibody. Positive responses to antibodies were determined after at least three evaluations. […] All data were represented as mean±standard error of the mean (S.E.M) with a statistical significance of p<0.05.
molecule,measurement,setting,value
"O=C1Nc2cc(Br)ccc2/C1=C1/Nc2ccccc2/C1=N\O [BIO, 6-bromoindirubin-3′-oxime, reference compound]",Positive rate of Crx,2 uM instead of Wnt3a,65.8(±1.0) %
same,Positive rate of Ki67,2 uM instead of Wnt3a,17.2(±0.6) %
same,Positive rate of Pax6,2 uM instead of Wnt3a,92.8(±1.0) %
same,Positive rate of Rom,2 uM instead of Wnt3a,60.3(±0.9) %
same,Positive rate of b-opsin,2 uM instead of Wnt3a,77.5(±1.8) %
same,Positive rate of peripherin2,2 uM instead of Wnt3a,33.9(±0.1) %
same,Positive rate of recoverin,2 uM instead of Wnt3a,77.1(±0.8) %
same,Positive rate of rhodopsin,2 uM instead of Wnt3a,71.5(±1.2) %
"[Cl-].[Li+] [LiCl, reference compound]",Positive rate of recoverin,2.5 mM instead of Wnt3a,64.1(±2.9) %
same,Positive rate of rhodopsin,2.5 mM instead of Wnt3a,56.2(±1.7) %
same,Positive rate of Crx,5 mM instead of Wnt3a,5.0(±1.7) %
same,Positive rate of Ki67,5 mM instead of Wnt3a,33.3(±2.2) %
same,Positive rate of peripherin2,5 mM instead of Wnt3a,1.5(±0.9) %
same,Positive rate of recoverin,5 mM instead of Wnt3a,78.9(±4.4) %
same,Positive rate of rhodopsin,5 mM instead of Wnt3a,68.5(±2.2) %
"O=C1NC(=O)C(c2ccccc2[N+](=O)[O-])=C1Nc1ccc(O)c(Cl)c1 [SB415286, reference compound]",Positive rate of Crx,30 uM instead of Wnt3a,53.7(±2.7) %
same,Positive rate of Ki67,30 uM instead of Wnt3a,13.3(±1.2) %
same,Positive rate of Pax6,30 uM instead of Wnt3a,89.1(±0.6) %
same,Positive rate of Rom,30 uM instead of Wnt3a,59.5(±0.7) %
same,Positive rate of b-opsin,30 uM instead of Wnt3a,53.7(±2.7) %
same,Positive rate of peripherin2,30 uM instead of Wnt3a,9.1(±0.6) %
same,Positive rate of recoverin,30 uM instead of Wnt3a,70.0(±0.6) %
same,Positive rate of rhodopsin,30 uM instead of Wnt3a,69.3(±0.5) %
"c1ccc2c(Oc3nc(Nc4ccc(N5CCOCC5)cc4)c4ncn(C5CCCCC5)c4n3)cccc2c1 [purmorphamine, reference compound]",Positive rate of Crx,1 uM instead of Shh,71.6(±0.8) %
same,Positive rate of Ki67,1 uM instead of Shh,24.3(±0.5) %
same,Positive rate of peripherin2,1 uM instead of Shh,41.5(±1.2) %
same,Positive rate of recoverin,1 uM instead of Shh,76.5(±0.9) %
same,Positive rate of rhodopsin,1 uM instead of Shh,73.5(±1.2) %
"Norrin: recombinant Norrin (R&D Systems), activator of the Wnt pathway, binds to Frizzled4 receptor",Positive rate of Crx,50 ng/ml instead of Wnt3a,39.3(±0.8) %
same,Positive rate of Ki67,50 ng/ml instead of Wnt3a,42.2(±6.8) %
same,Positive rate of Rom,50 ng/ml instead of Wnt3a,69.5(±2.7) %
same,Positive rate of b-opsin,50 ng/ml instead of Wnt3a,71.1(±0.6) %
same,Positive rate of peripherin2,50 ng/ml instead of Wnt3a,24.9(±4.5) %
same,Positive rate of recoverin,50 ng/ml instead of Wnt3a,85.0(±7.2) %
same,Positive rate of rhodopsin,50 ng/ml instead of Wnt3a,82.9(±7.1) %
"Wnt11: recombinant Wnt11 (R&D Systems), Wnt signaling pathway activator used instead of Wnt3a (protein, UniProt O96014 25-354, looked up) Protein Wnt-11: IKWLALSKTPSALALNQTQHCKQLEGLVSAQVQLCRSNLELMHTVVHAAREVMKACRRAFADMRWNCSSIELAPNYLLDLERGTRESAFVYALSAAAISHAIARACTSGDLPGCSCGPVPGEPPGPGNRWGGCADNLSYGLLMGAKFSDAPMKVKKTGSQANKLMRLHNSEVGRQALRASLEMKCKCHGVSGSCSIRTCWKGLQELQDVAADLKTRYLSATKVVHRPMGTRKHLVPKDLDIRPVKDSELVYLQSSPDFCMKNEKVGSHGTQDRQCNKTSNGSDSCDLMCCGRGYNPYTDRVVERCHCKYHWCCYVTCRRCERTVERYVCK",Positive rate of Crx,50 ng/ml instead of Wnt3a,65.9(±5.8) %
same,Positive rate of Ki67,50 ng/ml instead of Wnt3a,40.1(±5.2) %
same,Positive rate of Rom,50 ng/ml instead of Wnt3a,50.2(±7.4) %
same,Positive rate of b-opsin,50 ng/ml instead of Wnt3a,30.6(±6.2) %
same,Positive rate of peripherin2,50 ng/ml instead of Wnt3a,0.5(±0.3) %
same,Positive rate of recoverin,50 ng/ml instead of Wnt3a,65.3(±2.7) %
same,Positive rate of rhodopsin,50 ng/ml instead of Wnt3a,51.8(±7.7) %
same,Positive rate of peripherin2,100 ng/ml instead of Wnt3a,10.7(±2.9) %
same,Positive rate of recoverin,100 ng/ml instead of Wnt3a,61.8(±4.1) %
same,Positive rate of rhodopsin,100 ng/ml instead of Wnt3a,59.1(±5.4) %
"Wnt5A: recombinant Wnt5A (R&D Systems), Wnt signaling pathway activator used instead of Wnt3a (protein, UniProt P41221 62-380, looked up) Protein Wnt-5a: IIGAQPLCSQLAGLSQGQKKLCHLYQDHMQYIGEGAKTGIKECQYQFRHRRWNCSTVDNTSVFGRVMQIGSRETAFTYAVSAAGVVNAMSRACREGELSTCGCSRAARPKDLPRDWLWGGCGDNIDYGYRFAKEFVDARERERIHAKGSYESARILMNLHNNEAGRRTVYNLADVACKCHGVSGSCSLKTCWLQLADFRKVGDALKEKYDSAAAMRLNSRGKLVQVNSRFNSPTTQDLVYIDPSPDYCVRNESTGSLGTQGRLCNKTSEGMDGCELMCCGRGYDQFKTVQTERCHCKFHWCCYVKCKKCTEIVDQFVCK",Positive rate of Crx,50 ng/ml instead of Wnt3a,67.3(±1.9) %
same,Positive rate of Ki67,50 ng/ml instead of Wnt3a,41.3(±3.9) %
same,Positive rate of Rom,50 ng/ml instead of Wnt3a,58.8(±2.7) %
same,Positive rate of b-opsin,50 ng/ml instead of Wnt3a,55.0(±4.4) %
same,Positive rate of peripherin2,50 ng/ml instead of Wnt3a,20.7(±0.8) %
same,Positive rate of recoverin,50 ng/ml instead of Wnt3a,61.0(±3.2) %
same,Positive rate of rhodopsin,50 ng/ml instead of Wnt3a,59.5(±2.0) %
same,Positive rate of peripherin2,100 ng/ml instead of Wnt3a,14.2(±2.8) %
same,Positive rate of recoverin,100 ng/ml instead of Wnt3a,61.6(±2.5) %
same,Positive rate of rhodopsin,100 ng/ml instead of Wnt3a,56.1(±1.8) %
"Wnt1: recombinant Wnt1 (PeproTech), Wnt signaling pathway activator used instead of Wnt3a (protein, UniProt P04628 28-370, looked up) Proto-oncogene Wnt-1: ANSSGRWWGIVNVASSTNLLTDSKSLQLVLEPSLQLLSRKQRRLIRQNPGILHSVSGGLQSAVRECKWQFRNRRWNCPTAPGPHLFGKIVNRGCRETAFIFAITSAGVTHSVARSCSEGSIESCTCDYRRRGPGGPDWHWGGCSDNIDFGRLFGREFVDSGEKGRDLRFLMNLHNNEAGRTTVFSEMRQECKCHGMSGSCTVRTCWMRLPTLRAVGDVLRDRFDGASRVLYGNRGSNRASRAELLRLEPEDPAHKPPSPHDLVYFEKSPNFCTYSGRLGTAGTAGRACNSSSPALDGCELLCCGRGHRTRTQRVTERCNCTFHWCCHVSCRNCTHTRVLHECL",Positive rate of Crx,50 ng/ml instead of Wnt3a,60.3(±1.3) %
same,Positive rate of Ki67,50 ng/ml instead of Wnt3a,23.8(±1.2) %
same,Positive rate of Rom,50 ng/ml instead of Wnt3a,55.9(±2.9) %
same,Positive rate of b-opsin,50 ng/ml instead of Wnt3a,61.6(±6.8) %
same,Positive rate of peripherin2,50 ng/ml instead of Wnt3a,3.8(±2.0) %
same,Positive rate of recoverin,50 ng/ml instead of Wnt3a,70.9(±1.8) %
same,Positive rate of rhodopsin,50 ng/ml instead of Wnt3a,66.2(±5.4) %
